Seven compounds from ChEMBL document CHEMBL1201862, “PubChem BioAssay data set” (2004) can be followed below.

Test systems include CAKI-1; KM12; SNB-19; NCI-H226; MDA-N; 786-0; LOX IMVI; IGROV-1; COLO 205; M14; MOLT-4; UO-31; NCI-H23; NCI-H522; SK-MEL-5; OVCAR-4; CCRF-CEM; HCC 2998; SF-295.
Common to all, as to test: NCI tumour cell line growth inhibition, 48 h

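Protocol summary: plate cells (96-well), add compound at 5 concentrations, incubate 48 h, interpolate endpoints linearly. The concentration for 50% growth inhibition is given as GI50.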 Active and inactive are the calls of the source. No stated cut-off is given here; in the data, active = GI50 up to about 1.1 µM and inactive = higher.

Consider `CC(=O)c1ccc(Nc2nc3ccccc3c3occc23)cc1`, for which the GI50 with CAKI-1 is 3.26 µM (inactive); with KM12, 7.14 µM (inactive); in the experiment with SNB-19, 34.8 µM (inactive); in the experiment with NCI-H226, 17 µM (inactive); in the experiment on MDA-N, 6.98 µM (inactive); in the experiment with 786-0 it was 5.6 µM (inactive). Besides, the GI50 is 9.57 µM (inactive) in the experiment on LOX IMVI; 9.06 µM (inactive) in the experiment on IGROV-1; 8.99 µM (inactive) in the experiment on COLO 205; 14.1 µM (inactive) in the experiment on M14; 1.85 µM (inactive) with MOLT-4; 20.4 µM (inactive) in the experiment on UO-31. For the same compound, the GI50 with NCI-H23 is 12.2 µM (inactive); in the experiment with NCI-H522, 2.88 µM (inactive); in the experiment on SK-MEL-5, 12.1 µM (inactive); in the experiment with OVCAR-4 it was 1.79 µM (inactive); in the experiment on CCRF-CEM, 10.5 µM (inactive); with HCC 2998, 6.89 µM (inactive). Further, the GI50 in the experiment with SF-295 was 6.31 µM (inactive).

On to `CC1OC(OC2C(OC(=O)[C@]34CCC(C)(C)C[C@H]3C3=CC[C@@H]5[C@@]6(C)CC[C@H](OC7OC(C(=O)O)C(O)C(O)C7O)C(C)(C)[C@@H]6CC[C@@]5(C)[C@]3(C)C[C@H]4O)OCC(O)C2O)C(O)C(OC2OCC(O)(CO)C2O)C1OC1OCC(O)C(O)C1O` (stereo partly drawn), for which the GI50 in the experiment on CAKI-1 was 6.62 µM (inactive); in the experiment on KM12, 4.36 µM (inactive); in the experiment on SNB-19, 11 µM (inactive); with NCI-H226, 10.9 µM (inactive); in the experiment with MDA-N, 4.31 µM (inactive); with 786-0, 12.1 µM (inactive). Besides, the GI50 in the experiment with LOX IMVI is 13.7 µM (inactive); with IGROV-1, 16 µM (inactive); with COLO 205, 1.81 µM (inactive); with M14 it was 10.8 µM (inactive); with MOLT-4 it was 13.6 µM (inactive); in the experiment on UO-31 it was 2.92 µM (inactive). Moreover, the GI50 in the experiment on NCI-H23 was 2.59 µM (inactive); with NCI-H522, 4.08 µM (inactive); in the experiment on SK-MEL-5, 14.8 µM (inactive); in the experiment on OVCAR-4, 10.5 µM (inactive); in the experiment with CCRF-CEM, 17 µM (inactive); in the experiment on HCC 2998, 1.81 µM (inactive). The GI50 with SF-295 was 11.9 µM (inactive).

Take `O=P(O)(O)CN1CCNCCN(CP(=O)(O)O)CC1`: the GI50 in the experiment with CAKI-1 is > 90.6 µM (inactive); in the experiment on KM12, 28.6 µM (inactive); with SNB-19, > 100 µM (inactive); with NCI-H226, > 38.5 µM (inactive); in the experiment on MDA-N, 13.6 µM (inactive); in the experiment on 786-0, 23 µM (inactive). Moreover, the GI50 in the experiment with LOX IMVI was 25.9 µM (inactive); in the experiment with IGROV-1 it was 33.3 µM (inactive); in the experiment on COLO 205, 3.18 µM (inactive); in the experiment with M14, 37.9 µM (inactive); in the experiment on MOLT-4, 12.5 µM (inactive); in the experiment with UO-31, > 100 µM (inactive). For the same compound, the GI50 with NCI-H23 is 54.6 µM (inactive); in the experiment on NCI-H522, 19.9 µM (inactive); with SK-MEL-5, 14 µM (inactive); in the experiment on OVCAR-4, > 100 µM (inactive); in the experiment with CCRF-CEM it was 23.6 µM (inactive); with HCC 2998, 12.3 µM (inactive). The GI50 with SF-295 is 41.5 µM (inactive).

For the compound `C=CCn1c(-c2ccc(-c3cs/c(=N\N=O)n3CC=C)cc2)cs/c1=N\N=O`, the GI50 in the experiment on CAKI-1 was > 100 µM (inactive); with KM12, > 100 µM (inactive); with SNB-19, > 100 µM (inactive); in the experiment on NCI-H226 it was > 100 µM (inactive); with MDA-N it was > 100 µM (inactive); in the experiment with 786-0, 62.5 µM (inactive). The GI50 in the experiment with LOX IMVI, in the experiment on IGROV-1, in the experiment with COLO 205, with M14, in the experiment on MOLT-4 and with UO-31 was > 100 µM (inactive) throughout. The GI50 with NCI-H23 was > 100 µM (inactive); in the experiment on NCI-H522 it was 83.2 µM (inactive); with SK-MEL-5, > 100 µM (inactive); in the experiment with OVCAR-4, 22.2 µM (inactive); in the experiment with CCRF-CEM, > 100 µM (inactive); in the experiment on HCC 2998, > 100 µM (inactive). The GI50 with SF-295 was 91 µM (inactive).

With `N#Cc1cccc(Nc2ccccc2SSc2ccccc2Nc2cccc(C#N)c2)c1`, the GI50 was 9.02 µM (inactive) in the experiment on CAKI-1; 9.46 µM (inactive) in the experiment with KM12; 7.76 µM (inactive) in the experiment on SNB-19; 10.3 µM (inactive) in the experiment with NCI-H226; 9.23 µM (inactive) in the experiment with MDA-N; 3.91 µM (inactive) with 786-0. The GI50 was 2.73 µM (inactive) in the experiment with LOX IMVI; 8.65 µM (inactive) in the experiment on IGROV-1; > 10 µM (inactive) in the experiment with COLO 205; 7.55 µM (inactive) in the experiment on M14; 3.13 µM (inactive) in the experiment with MOLT-4; 4.97 µM (inactive) with UO-31. Also, the GI50 with NCI-H23 is 11.7 µM (inactive); in the experiment with NCI-H522, 8.11 µM (inactive); with SK-MEL-5, 9.04 µM (inactive); in the experiment with OVCAR-4, 10.7 µM (inactive); in the experiment on CCRF-CEM it was 2.94 µM (inactive); in the experiment with HCC 2998, 16.6 µM (inactive). For the same compound, the GI50 with SF-295 is 13.2 µM (inactive).

On to `CN(CCCCN1CCCC1)CCCCN(C)C(=O)Cc1ccc(Cl)c(Cl)c1`, for which the GI50 in the experiment on CAKI-1 is 19.5 µM (inactive); in the experiment with KM12, 13.1 µM (inactive); with SNB-19 it was 19.3 µM (inactive); in the experiment with NCI-H226 it was 23.7 µM (inactive); in the experiment with MDA-N, 3.56 µM (inactive); with 786-0, 12.3 µM (inactive). Further, the GI50 in the experiment on LOX IMVI was 10.6 µM (inactive); with IGROV-1, 18.2 µM (inactive); in the experiment with COLO 205 it was 7.8 µM (inactive); in the experiment on M14 it was 17.2 µM (inactive); with MOLT-4, 4.54 µM (inactive); with UO-31 it was 1.71 µM (inactive). Also, the GI50 is 17.9 µM (inactive) with NCI-H23; 11.5 µM (inactive) with NCI-H522; 6.43 µM (inactive) in the experiment with SK-MEL-5; 17.6 µM (inactive) with OVCAR-4; 6.22 µM (inactive) in the experiment with CCRF-CEM; 5.09 µM (inactive) in the experiment with HCC 2998. Further, the GI50 in the experiment on SF-295 was 19.5 µM (inactive).

On to `COc1cc(OC)cc(C(=O)NC2=C(Cl)C(=O)c3ccccc3C2=O)c1`, for which the GI50 is 5.4 µM (inactive) in the experiment on CAKI-1; 1.62 µM (inactive) in the experiment on KM12; 5.5 µM (inactive) with SNB-19; 3.3 µM (inactive) in the experiment with NCI-H226; 1.91 µM (inactive) with MDA-N; 2.96 µM (inactive) with 786-0. Moreover, the GI50 in the experiment on LOX IMVI was 1.99 µM (inactive); with IGROV-1 it was 2.18 µM (inactive); in the experiment on COLO 205, 2.52 µM (inactive); with M14 it was 1.07 µM (active); in the experiment on MOLT-4 it was 1.67 µM (inactive); in the experiment on UO-31, 3.15 µM (inactive). Moreover, the GI50 in the experiment with NCI-H23 is 2.43 µM (inactive); in the experiment on NCI-H522, 0.728 µM (active); in the experiment on SK-MEL-5 it was 2.04 µM (inactive); with OVCAR-4, 1.79 µM (inactive); in the experiment on CCRF-CEM it was 0.355 µM (active); in the experiment with HCC 2998, 3.48 µM (inactive). In the experiment with SF-295, the GI50 is 2.92 µM (inactive).
